The numbers were not newly measured in patent US20220340870A1, “FUNCTIONAL NEUROMODULATORY ASSEMBLOIDS” (The Board of Trustees of the Leland Stanford Junior …, priority 2019, published 2022), which cites them from elsewhere.

This data set deals with Smo (Homo sapiens, UniProt Q99835). The conditions noted are these: interacting with the Smo heptahelical domain.
Chain of Smo (Q99835 28-787): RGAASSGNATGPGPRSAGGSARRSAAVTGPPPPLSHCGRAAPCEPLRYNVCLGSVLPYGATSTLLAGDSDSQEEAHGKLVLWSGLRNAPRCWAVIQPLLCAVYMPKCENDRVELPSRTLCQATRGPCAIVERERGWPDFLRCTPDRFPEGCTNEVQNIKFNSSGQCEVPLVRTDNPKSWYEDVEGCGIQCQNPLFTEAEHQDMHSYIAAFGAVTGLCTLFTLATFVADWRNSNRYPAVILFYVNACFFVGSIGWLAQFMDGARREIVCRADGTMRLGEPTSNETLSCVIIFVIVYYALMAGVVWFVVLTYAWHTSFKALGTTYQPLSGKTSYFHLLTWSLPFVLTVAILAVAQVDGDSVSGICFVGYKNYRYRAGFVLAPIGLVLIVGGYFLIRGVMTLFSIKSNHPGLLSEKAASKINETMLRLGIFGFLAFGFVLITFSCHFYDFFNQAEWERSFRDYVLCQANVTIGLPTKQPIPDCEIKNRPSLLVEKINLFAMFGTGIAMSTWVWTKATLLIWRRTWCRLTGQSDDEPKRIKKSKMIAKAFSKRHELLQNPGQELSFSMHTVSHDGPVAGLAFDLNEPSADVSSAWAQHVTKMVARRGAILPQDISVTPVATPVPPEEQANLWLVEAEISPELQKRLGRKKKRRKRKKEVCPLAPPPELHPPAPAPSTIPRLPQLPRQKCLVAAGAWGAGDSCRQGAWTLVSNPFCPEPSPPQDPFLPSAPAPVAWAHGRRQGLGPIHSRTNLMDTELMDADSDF

Broadly, the Kd is the equilibrium constant for the complex coming apart. Take `CNC1CCC(N(Cc2cccc(-c3ccncc3)c2)C(=O)c2sc3ccccc3c2Cl)CC1` (stereo not shown) [SAG]: the Kd was 59 nM.
